Patent US20160108027A1, “SUBSTITUTED BENZOXAZOLES” (BAYER PHARMA AKTIENGESELLSCHAFT, priority 2013, published 2016)

Legend:
thrombin [1] = biological target: T1, thrombin (Homo sapiens, UniProt P00734); assay: Measurement of the thrombin inhibition in buffer; type: biochemical; conditions: human thrombin 0.06 nmol/l in Tris buffer pH 7.4, 22° C., substrate Boc-Asp(OBzl)-Pro-Arg-AMC; in some cases means of individual determinations
Experimental: To determine the thrombin inhibition of the substances listed above, a biochemical test system is constructed in which the conversion of a thrombin substrate is used for determining the enzymatic activity of human thrombin. Here, thrombin cleaves aminomethylcoumarin, which is measured fluorescently, from the peptic substrate. The determinations are carried out in microtitre plates.
Substances to be tested are dissolved in various concentrations in dimethyl sulphoxide and incubated for 15 min with human thrombin (0.06 nmol/l dissolved in 50 mmol/l of Tris buffer [C,C,C-tris(hydroxymethyl)aminomethane], 100 mmol/l of sodium chloride, 0.1% BSA [bovine serum albumin], pH 7.4) at 22° C. The substrate (5 μmol/l Boc-Asp(OBzl)-Pro-Arg-AMC from Bachem) is then added. After 30 min of incubation, the sample is excited at a wavelength of 360 nm and the emission is measured at 460 nm. The measured emissions of the test mixtures with test substance are compared to the control mixtures without test substance (only dimethyl sulphoxide instead of test substance in dimethyl sulphoxide) and IC50 values are calculated from the concentration/activity relationships. Representative activity data from this test are given in Table 1 below (in some cases as means of individual determinations): […]

thrombin [2] = biological target: T1, thrombin; assay: Determination of the thrombin-inhibitory activity in plasma samples (ecarin-activated); type: biochemical; conditions: citrate plasma, ecarin activation, fluorogenic thrombin substrate; in some cases means of individual determinations
Experimental: To determine the inhibition of thrombin in plasma samples, plasma […] is activated by ecarin. Thrombin activity and/or its inhibition by potential inhibitors is/are then measured fluorenscently by addition of a substrate.
The substances to be tested are dissolved in various concentrations in dimethyl sulphoxide and diluted with water. In white 96-well flat-bottomed plates, 20 μl of substance dilution are mixed with 20 μl of ecarin solution (ecarin reagent, from Sigma E-0504, final concentration 20 mU per reaction) in Ca buffer (200 mM Hepes+560 mM sodium chloride+10 mM calcium chloride+0.4% PEG) or with 20 μl of Ca buffer (as unstimulated control). Furthermore, 20 μl of fluorogenic thrombin substrate (from Bachem 1-1120, final concentration 50 μmol/1) and 20 μl of citrate plasma (from Octapharma) are added, and the mixture is homogenized well. The plate is measured in a SpectraFluorplus Reader using a 360 nm excitation filter and a 465 nm emission filter every minute over 20 minutes. […] Representative activity data from this test are given in Table 2 below (in some cases as means of individual determinations): […]

Compound | IC50 (thrombin [1]) | IC50 (thrombin [2])
COc1cc(C(=O)N2CC(C)CCC2C2(O)CC2)cc2nc(NCc3cc(Cl)ccn3)oc12 (single isomer, unassigned) [Example 89, (2-{[(4-Chloropyridin-2-yl)methyl]amino}-7-methoxy-1,3-benzoxazol-5-yl) [2-(1-hydroxycyclopropyl)-5-methylpiperidin-1-yl]methanone] | 17 nM | 35 nM
CCO[C@@H]1CC(CO)N(C(=O)c2cc(OC)c3oc(NCc4cc(Cl)ccn4)nc3c2)C1 (stereo partly drawn) [Example 1, (2-{[(4-Chloropyridin-2-yl)methyl]amino}-7-methoxy-1,3-benzoxazol-5-yl)[(4R)-4-ethoxy-2-(hydroxymethyl)pyrrolidin-1-yl]methanone] | 15 nM | 25 nM
COc1cc(C(=O)N2CC(C)(CC(C)O)OC[C@H]2C)cc2nc(NC(C)c3cc(Cl)ccn3)oc12 (single isomer, unassigned) [Example 27] | 2.1 nM | 7.6 nM
COc1cc(C(=O)N2CC(C)OCC23CC(O)C3)cc2nc(NCc3cc(Cl)ccn3)oc12 (single isomer, unassigned) [Example 53, (2-{[(4-Chloropyridin-2-yl)methyl]amino}-7-methoxy-1,3-benzoxazol-5-yl)(2-hydroxy-7-methyl-8-oxa-5-azaspiro[3.5]non-5-yl)methanone] | 36 nM | 49 nM
COc1cc(C(=O)N2CC(C)(CC(C)O)OC[C@H]2C)cc2nc(NCc3cc(Cl)ccn3)oc12 (single isomer, unassigned) [Example 25] | 1 nM | 6.8 nM
COc1cc(C(=O)N2CC(C)(C)OCC2CF)cc2nc(NCc3cc(Cl)ccn3)oc12 (single isomer, unassigned) [Example 43, (2-{[(4-Chloropyridin-2-yl)methyl]amino}-7-methoxy-1,3-benzoxazol-5-yl) [5-(fluoromethyl)-2,2-dimethylmorpholin-4-yl]methanone] | 18 nM | 17 nM
COc1cc(C(=O)N2CC(C)OCC2C(C)(C)O)cc2nc(NCc3cc(Cl)ccn3)oc12 (single isomer, unassigned) [Example 37, (2-{[(4-Chloropyridin-2-yl)methyl]amino}-7-methoxy-1,3-benzoxazol-5-yl) [5-(2-hydroxypropan-2-yl)-2-methylmorpholin-4-yl]methanone] | 37 nM | 44 nM
CCC1C(=O)NC2(CC2)CN1C(=O)c1cc(OC)c2oc(NCc3cc(Cl)ccn3)nc2c1 (racemic) [Example 78, 7-[(2-{[(4-Chloropyridin-2-yl)methyl]amino}-7-methoxy-1,3-benzoxazol-5-yl)carbonyl]-6-ethyl-4,7-diazaspiro[2.5]octan-5-one] | 13 nM | 19 nM
COc1cc(C(=O)N2C[C@H](OCC(F)F)CC2CO)cc2nc(NCc3cc(Cl)ccn3)oc12 (single isomer, unassigned) [Example 7] | 37 nM | 70 nM
CCO[C@@H]1CC(CO)N(C(=O)c2cc(OC)c3oc(NCc4cc(Cl)ccn4)nc3c2)C1 (single isomer, unassigned) [Example 2] | 6.2 nM | 19 nM
COc1cc(C(=O)N2CC(C)(C)OCC2CC(C)O)cc2nc(NCc3cc(Cl)ccn3)oc12 (single isomer, unassigned) [Example 65, (2-{[(4-Chloropyridin-2-yl)methyl]amino}-7-methoxy-1,3-benzoxazol-5-yl) [5-(2-hydroxypropyl)-2,2-dimethylmorpholin-4-yl]methanone] | 24 nM | 61 nM
COc1cc(C(=O)N2CC(C)CCC2CCO)cc2nc(NCc3cc(Cl)ccn3)oc12 (single isomer, unassigned) [Example 85, (2-{[(4-Chloropyridin-2-yl)methyl]amino}-7-methoxy-1,3-benzoxazol-5-yl) [2-(2-hydroxyethyl)-5-methylpiperidin-1-yl]methanone] | 17 nM | 47 nM
COCC1COC(C)(C)CN1C(=O)c1cc(OC)c2oc(NCc3cc(Cl)ccn3)nc2c1 (racemic) [Example 41, (2-{[(4-Chloropyridin-2-yl)methyl]amino}-7-methoxy-1,3-benzoxazol-5-yl) [5-(methoxymethyl)-2,2-dimethylmorpholin-4-yl]methanone] | 50 nM | 50 nM
COc1cc(C(=O)N2CC(C)(CC(C)O)OCC2(C)C)cc2nc(NCc3cc(Cl)ccn3)oc12 (single isomer, unassigned) [Example 35, (2-{[(4-Chloropyridin-2-yl)methyl]amino}-7-methoxy-1,3-benzoxazol-5-yl) [2-(2-hydroxypropyl)-2,5,5-trimethylmorpholin-4-yl]methanone] | 5 nM | 71 nM
COc1cc(C(=O)N2CC(C)CCC2CC2(O)CC2)cc2nc(NCc3cc(Cl)ccn3)oc12 (centres unmarked) [Example 87, (2-{[(4-Chloropyridin-2-yl)methyl]amino}-7-methoxy-1,3-benzoxazol-5-yl){2-[(1-hydroxycyclopropyl)methyl]-5-methylpiperidin-1-yl}methanone] | 5.3 nM | 27 nM
COc1cc(C(=O)N2CC(C)(CC(C)O)OCC2CF)cc2nc(NCc3cc(Cl)ccn3)oc12 (racemic) [Example 22, (2-{[(4-Chloropyridin-2-yl)methyl]amino}-7-methoxy-1,3-benzoxazol-5-yl) [5-(fluoromethyl)-2-(2-hydroxypropyl)-2-methylmorpholin-4-yl]methanone] | 1.7 nM | 11 nM
COc1cc(C(=O)N2CC(C)OCC2C2CC(O)C2)cc2nc(NCc3cc(Cl)ccn3)oc12 (single isomer, unassigned) [Example 48, (2-{[(4-Chloropyridin-2-yl)methyl]amino}-7-methoxy-1,3-benzoxazol-5-yl) [5-(3-hydroxycyclobutyl)-2-methylmorpholin-4-yl]methanone] | 11 nM | 16 nM
COc1cc(C(=O)N2CC(C)OCC2CCO)cc2nc(NCc3cc(Cl)ccn3)oc12 (racemic) [Example 70, (2-{[(4-Chloropyridin-2-yl)methyl]amino}-7-methoxy-1,3-benzoxazol-5-yl) [5-(2-hydroxyethyl)-2-methylmorpholin-4-yl]methanone] | 38 nM | 74 nM
COc1cc(C(=O)N2CC(C)(C)OCC2CC(C)O)cc2nc(NCc3cc(Cl)ccn3)oc12 (single isomer, unassigned) [Example 62, (2-{[(4-Chloropyridin-2-yl)methyl]amino}-7-methoxy-1,3-benzoxazol-5-yl) [5-(2-hydroxypropyl)-2,2-dimethylmorpholin-4-yl]methanone] | 68 nM | 107 nM
COc1cc(C(=O)N2CC(C)(C)OCC2(C)CO)cc2nc(NCc3cc(Cl)ccn3)oc12 (single isomer, unassigned) [Example 40, (2-{[(4-Chloropyridin-2-yl)methyl]amino}-7-methoxy-1,3-benzoxazol-5-yl) [5-(hydroxymethyl)-2,2,5-trimethylmorpholin-4-yl]methanone] | 18 nM | 33 nM
COc1cc(C(=O)N2CC(C)OCC2(C)C)cc2nc(NCc3cc(Cl)ccn3)oc12 (single isomer, unassigned) [Example 45, (2-{[(4-Chloropyridin-2-yl)methyl]amino}-7-methoxy-1,3-benzoxazol-5-yl)(2,5,5-trimethylmorpholin-4-yl)methanone] | 24 nM | 41 nM
COc1cc(C(=O)N2C[C@H](OC3CC3)C[C@H]2CO)cc2nc(NC(C)c3cc(Cl)ccn3)oc12 (single isomer, unassigned) [Example 15] | 6.4 nM | 21 nM
COc1cc(C(=O)N2C[C@H](OC3CC3)C[C@H]2C(=O)N2CC(F)C2)cc2nc(NCc3cc(Cl)ccn3)oc12 [Example 11, (2-{[(4-Chloropyridin-2-yl)methyl]amino}-7-methoxy-1,3-benzoxazol-5-yl){(2S,4R)-4-(cyclopropyloxy)-2-[(3-fluoroazetidin-1-yl)carbonyl]pyrrolidin-1-yl}methanone] | 31 nM | 101 nM
COc1cc(C(=O)N2CC(C)(CCO)OC[C@H]2C)cc2nc(NCc3cc(Cl)ccn3)oc12 (single isomer, unassigned) [Example 24] | 2.5 nM | 12 nM
COc1cc(C(=O)N2CC3(CC3)NC(=O)C2C)cc2nc(NCc3cc(Cl)ccn3)oc12 (single isomer, unassigned) [Example 77, 7-[(2-{[(4-Chloropyridin-2-yl)methyl]amino}-7-methoxy-1,3-benzoxazol-5-yl)carbonyl]-6-methyl-4,7-diazaspiro[2.5]octan-5-one] | 14 nM | 23 nM
